# Results reported in patent US10993926B2, “Use of IDHP in preparation of drug or health product for prevention and treatment of coronary atherosclerosis disease” (NORTHWEST UNIVERSITY, priority 2016, dated 2021).
# Read-outs that look alike come from different tables or passages of the source.
# Experiments:
# [1] = test system: human umbilical vein endothelial cells (HUVEC); experiment: Proliferation of human umbilical vein endothelial cells, CCK-8 method; assay type: cell-based; details: 10^−9 to 10^−7 M, 48 hours, compared with blank control, P<0.01, FIG. 1
# Method: 1.1 Detect Proliferation of Human Umbilical Vein Endothelial Cells Promoted by IDHP—CCK-8 Method
# Human umbilical vein endothelial cells were seeded in a 96-well plate at a density of approximately 2,500 cells per well. After the cells were culture for 24 hours, the medium was changed for a fresh medium containing drug, 100 μl/well, and the cells were continued culturing for 48 hours. 2 hours before the end of drug treatment, CCK-8 reagent was added to the culture medium in the dark, 10 μl per well. The culture was continued for 2 hours, and then the absorbance at 450 nm was determined with a microplate reader to calculate the cell proliferation rate.
# [2] = test system: human umbilical vein endothelial cells (HUVEC); experiment: Migration of HUVEC, scratch method; assay type: cell-based; details: 10^−10 to 10^−7 M, 16 hours, FIG. 2
# Method: 1.2 Detect Migration of Human Umbilical Vein Endothelial Cells (HUVEC) Promoted by IDHP—Scratch Method
# Endothelial cells were seeded on a cover slip pre-coated with gelatin in a 24-well plate at a density of about 10^5 cells per well. After the cells attached to the cover slip and reached confluence, cells were starved in a medium without serum for 4 hours. A home-made tool was used to make scratch on the cover slip with cells. The cover slip was washed twice with PBS, and a medium containing drug was added, 600 μl/well. Control group was immediately fixed with ice-cold methanol at zero time point; rest of the cells were cultured for 16 hours, and then fixed with ice-cold methanol. Images were acquired under a microscope and subjected to statistics analysis.
# [3] = test system: primary human umbilical vein endothelial cells (HUVEC); experiment: Tube formation of HUVEC, Matrigel gel method; assay type: cell-based; details: 8 hours on Matrigel, compared with Ctrl control group
# Method: 1.3 Detect Tube Formation of Human Umbilical Vein Endothelial Cells (HUVEC) Promoted by IDHP—Matrigel Gel Method
# Pipette tips and 96-well plate were pre-cooled at −20° C. Matrigel gel was placed on ice and melted, and then added to the pre-cooled 96-well plate (60 μl/well). Avoid the formation of air bubbles. The plate was placed on ice for 5 minutes to level the Matrigel gel, and then put into a cell culture incubator for 30 minutes to solidify. Endothelial cells were added to the wells (5×10^4 cells/well) containing Matrigel gel, and fresh medium containing different concentrations of the drug was added, incubated at 37° C. for 8 hours. The plate was observed under a microscope, 5 fields of view were chosen at 0, 3, 6, 9 o'clock positions and the center of each well, the number of tubules and the integrity of the tubular structure were observed and images were acquired.
# [4] = test system: zebrafish intersegmental vessels; experiment: Angiogenesis in transgenic Tg (VEGFR2:GFP) zebrafish (intersegmental vessels); assay type: in vivo; details: for Length of Blood Vessels / Number of Blood Vessels: zebrafish ISV
# Method: The transgenic Tg (VEGFR2:GFP) zebrafishes were cultured under the standard conditions of illumination for 14 hours/dark for 10 hours at 28° C. Healthy and mature zebrafishes were put into a breeding container at a ratio of female to male 1/1 or 1/2 for mating. The fertilized eggs were obtained at 9 to 10 o'clock the next day. The fertilized eggs were sterilized and washed, then transferred to zebrafish embryo culture medium and cultured at 28° C.
# Drug solution was added to a 24-well culture plate, and 24 hpf embryos were carefully transferred to wells, 8-10 per well, and culture medium was added until a total volume of 2 ml to make sure that the final concentration of DMSO in the medium was not higher than 1%. After 24-hour drug treatment, the embryos were observed under a fluorescence microscope, and the total number of intersegmental vessels in trunk and tail were counted, and the relative generation rate of ISV in each administration group was calculated. Analysis of variance between groups was performed using SPSS software.
# [5] = test system: human platelet aggregation induced by ADP; experiment: ADP-induced normal human platelet aggregation, turbidimetry; assay type: cell-based; details: human PRP, ADP 3 μmol/L, compared with ADP alone (Ctrl), FIG. 6
# Method: (§1) The whole blood samples of healthy volunteers were collected into the anticoagulant tubes and centrifuged at 800 g for 5 minutes at room temperature. The light yellow supernatant was the platelet-rich plasma (PRP); the remaining solution was further centrifuged at 4000 g for 10 minutes at room temperature, and the supernatant obtained was platelet-poor plasma (PPP).
# (§2) PRP was adjusted to 3×10^5 platelets/μl with PPP, 300 μl of adjusted PRP was added to 30 μl of PBS or different concentrations of IDHP and incubated at 37° C. for 3 minutes in a blood coagulation apparatus. Collagen or ADP at a final concentration of 3 μmol/L was added to initiate the aggregation reaction of platelets. The inhibitory effect of IDHP and clopidogrel on platelet aggregation was determined by turbidimetry.
# [6] = test system: human platelet aggregation induced by collagen; experiment: Collagen-induced normal human platelet aggregation, turbidimetry; assay type: cell-based; details: human PRP, collagen 3 μmol/L, compared with collagen alone (Ctrl), P<0.001, FIG. 6
# Method: as §1, §2
# [7] = Acute toxicity test in mice with rapid administration (IV); assay type: in vivo; details: both sexes, mouse, in vivo, iv, mice, IV, administration completed within 5 seconds
# Method: (§3) 4.1 Acute Toxicity Test in Mice with Rapid Administration
# (§4) Sixty mice were used, half male and half female, and randomly divided into 6 groups. […] The spacing between the concentrations was 1:0.9. After the animals were fasted for 12 hours, each group was subjected to IV administration, the volume was 20 ml/kg, and the administration was completed within 5 seconds for each animal.
# mice [8] = experiment: as above; assay type: in vivo
# Method: as §3, §4
# [9] = Acute toxicity test in mice with slow administration (tail vein); assay type: in vivo; details: both sexes, mouse, in vivo, intravenous, mice, tail vein, administration completed within 10 minutes, 14 days observation
# Method: (§5) 4.2 Acute Toxicity Test in Mice with Slow Administration
# (§6) After housing in the laboratory for 1 day, the test mice with qualified body weight were selected and randomly divided into groups according to body weight and sex, 10 for each group, half male and half female. According to the result of premeasurement, the absolute lethal dose was 2.4 g/kg. The mice were subjected to tail vein administration, the dose for the mice was calculated according to body weight. The doses were 2.4 g/kg, 2.2 g/kg, 2.0 g/kg, and 1.8 g/kg, respectively, and the drug delivery rate was calculated. The administration was completed within 10 minutes. The reactions of the mice were observed after the administration and the death of the mice was recorded within 14 days.
# (§7) The main toxic reactions after intravenous administration were central inhibition, respiratory failure, etc. Most of the death occurred during the administration period. […] After 14 days of observation, the mortality rate of the mice was calculated.
# mice [10] = experiment: as above; assay type: in vivo
# Method: as §5, §6, §7
# red blood cells = experiment: Hemolysis assay; assay type: cell-based, domestic rabbit; details: rabbit 2% red blood cells, IDHP groups 2 to 10 (10^−3 mol/l), 37±0.5° C., 0.5 h to 3 h
# Method: Arterial blood from domestic rabbit was collected, fibrin was removed, red blood cells were washed with physiological saline and then formulated into a 2% red blood cell physiological saline solution. The test was operated according to Table 4, four parallel test tubes in each group.
# After the above operation, the tubes were put in water bath at 37±0.5° C., one tube from each group was taken at 0.5 h, 1 h, 2 h and 3 h respectively, centrifuged at 3000 rpm for 15 minutes. Red blood cell hemolysis was observed, at the same time, the morphology of red blood cells was observed under light microscope.
compound,measurement,setting,value
"CC(C)OC(=O)C(O)Cc1ccc(O)c(O)c1 (stereo not drawn) [IDHP, β-(3,4-dihydroxyphenyl)-α-hydroxyisopropyl propionate]",proliferation of vascular endothelial cell,[1],significantly promoted
same,migration of human umbilical vein endothelial cells (HUVEC),[2],could promote the migration
same,tube formation of primary HUVEC,[3],significantly promoted
same,growth of intersegmental vessels and posterior longitudinal blood vessels in zebrafish,"[4]; 0.01, 0.1 and 1.0 μM, 24-hour treatment, FIG. 4",significantly promoted
same,relative generation rate of ISV,"[4]; calculated from total vessel length vs PTK787 control and normal control, FIG. 5",dose-dependent relationship
same,Length of Blood Vessels,[4]; 0.01 μM,287.4 ± 18.8 μm
same,Number of Blood Vessels,[4]; 0.01 μM,25.0 ± 8.6
same,Length of Blood Vessels,[4]; 0.1 μM,359.2 ± 58.2 μm
same,Number of Blood Vessels,[4]; 0.1 μM,26.1 ± 3.3
same,Length of Blood Vessels,[4]; 1.0 μM,447.6 ± 19.5 μm
same,inhibitory effect on ADP-induced platelet aggregation,[5],significantly inhibit
same,inhibitory effect on collagen-induced platelet aggregation,[6],more significant
same,LD50,[7]; read-out: LD50 95% confidence interval,370 to 486 mg/kg
same,LD50,"[7]; read-out: LD50 (Bliss method, Feiller heterogeneity correction)",424 ± 58 mg/kg
same,LD50,"[7]; read-out: LD50 (regression equation, without heterogeneity correction)",424 mg/kg
same,time until undead animals returned to normal,"mice [8]; both, mouse, in vivo, iv",10 min
same,Mortality Rate (%),"mice [8]; both, mouse, in vivo, iv, 320 mg/kg",0%
same,Mortality Rate (%),"mice [8]; both, mouse, in vivo, iv, 375 mg/kg",40%
same,Mortality Rate (%),"mice [8]; both, mouse, in vivo, iv, 400 mg/kg",40%
same,Mortality Rate (%),"mice [8]; both, mouse, in vivo, iv, 480 mg/kg",50%
same,Mortality Rate (%),"mice [8]; both, mouse, in vivo, iv, 530 mg/kg",100%
same,Mortality Rate (%),"mice [8]; both, mouse, in vivo, iv, 629 mg/kg",100%
same,time to death after the administration,"mice [8]; mice, rapid IV, dead animals",≤ 1 min
same,"autopsy of dead mice, vital organs (heart, liver, spleen, lung, kidney, brain, stomach, intestine)","mice [8]; mouse, in vivo, iv",no abnormality
same,LD50 at 14 days,[9]; read-out: LD50 95% confidence limit,1960 to 2140 mg/kg
same,LD50 at 14 days,[9]; read-out: LD50 (Bliss method),2050 mg/kg
same,absolute lethal dose,"mice [10]; mice, premeasurement",2400 mg/kg
same,anatomy findings,"mice [10]; mouse, in vivo",No abnormal changes
same,red blood cell hemolysis,red blood cells,no obvious hemolysis
"Clc1ccc(Nc2nnc(Cc3ccncc3)c3ccccc23)cc1 [PTK787, reference compound]",Number of Blood Vessels,[4]; 0.1 μg/ml,3.6 ± 1.3
same,Length of Blood Vessels,[4]; 0.1,36.4 ± 14.2 μm
"COC(=O)[C@H](c1ccccc1Cl)N1CCc2sccc2C1 [clopidogrel, reference compound]",inhibitory effect on ADP-induced platelet aggregation,[5],significantly inhibited
VEGF,Length of Blood Vessels,[4]; 10 ng/ml,420.0 ± 54.2 μm
same,Number of Blood Vessels,[4]; 10 ng/ml,29.3 ± 3.3
